From ChEMBL document CHEMBL5338734, “Anticancer Activity of Region B Capsaicin Analogs” (J Med Chem, 2023)
Blank lines part the entries; values can stand above or below the compound they belong to.

Tests used:
SCC-9 = test: Antiproliferative activity against human SCC-9 cells assessed as inhibition of cell growth incubated for 24 hrs by MTS assay; type: functional, cell-based; settings: SCC-9, 24 h
[1] = Cytotoxicity against human OKF6/TERT-2 cells assessed as inhibition of cell growth at >7.5 uM incubated for 24 hrs by MTS assay; type: toxicity, cell-based; settings: read-out: Activity
CAL-27 [2] = test: Antitumor activity against human CAL-27 cells xenografted in mouse assessed as mean tumor volume at 12 mg/kg, ip measured for 4 weeks by hematoxylin and eosin staining based analysis (reference value: 541 […]); type: functional
HSC-3 = test: Antiproliferative activity against human HSC-3 cells assessed as inhibition of cell growth incubated for 24 hrs by MTS assay; type: functional, cell-based; settings: HSC-3, 24 h
CAL-27 [3] = test: Antiproliferative activity against human CAL-27 cells assessed as inhibition of cell growth incubated for 24 hrs by MTS assay; type: functional, cell-based; settings: CAL-27, 24 h
SCC-4 = test: Antiproliferative activity against human SCC-4 cells assessed as inhibition of cell growth incubated for 24 hrs by MTS assay; type: functional, cell-based; settings: SCC-4, 24 h
CAL-27 [4] = test: Antitumor activity against human CAL-27 cells xenografted in mouse assessed as fold decrease in tumor size at 12 mg/kg, ip measured for 4 weeks by hematoxylin and eosin staining based analysis relative to control; type: functional
Jurkat = test: Induction of apoptosis in human Jurkat cells assessed as increase in apoptotic cells by propidium iodide staining based flow cytometry; type: functional, cell-based
[5] = Antiproliferative activity against human SK-MEL-85 cells assessed as inhibition of cell growth incubated for 24 hrs by MTT assay; type: functional, cell-based; settings: SK-MEL-85, 24 h
SBcl2 = test: Antiproliferative activity against human SBcl2 cells assessed as inhibition of cell growth incubated for 24 hrs by MTT assay; type: functional, cell-based; settings: SBcl2, 24 h
MCF7 [6] = test: Antiproliferative activity against human MCF7 cells assessed as inhibition of cell growth incubated for 24 hrs by MTT assay; type: functional, cell-based; settings: MCF7, 24 h
SK-MEL-28 [7] = test: Antiproliferative activity against human SK-MEL-28 cells assessed as inhibition of cell growth incubated for 24 hrs by MTT assay; type: functional, cell-based; settings: SK-MEL-28, 24 h
CAL-27 [8] = test: Antiproliferative activity against human CAL-27 cells assessed as reduction of cell growth at 500 uM incubated for 24 hrs in presence of cisplatin by MTS assay; type: functional; parameters: scale not given: the % may be the effect or the level left
PC-3 = test: Antiproliferative activity against human PC-3 cells assessed as inhibition of cell growth incubated for 24 hrs by MTS assay; type: functional, cell-based; settings: PC-3, 24 h
CAL-27 [9] = test: Antiproliferative activity against human CAL-27 cells assessed as reduction of cell growth at 500 uM incubated for 24 hrs in presence of gefitinib by MTS assay; type: functional; parameters: scale not given: the % may be the effect or the level left
CAL-27 [10] = test: Antiproliferative activity against human CAL-27 cells assessed as reduction of cell growth at 500 uM incubated for 24 hrs by MTS assay; type: functional; parameters: scale not given: the % may be the effect or the level left
NCI-H460 = test: Antiproliferative activity against human NCI-H460 cells assessed as inhibition of cell growth incubated for 24 hrs by MTS assay; type: functional, cell-based; settings: NCI-H460, 24 h
HeLa = test: Antiproliferative activity against human HeLa cells assessed as inhibition of cell growth incubated for 24 hrs by MTS assay; type: functional, cell-based
MDA-MB-231 [11] = test: Antiproliferative activity against human MDA-MB-231 cells assessed as inhibition of cell growth incubated for 24 hrs by MTS assay; type: functional, cell-based; settings: MDA-MB-231, 24 h
B16-F10 = test: Antiproliferative activity against B16-F10 cells assessed as inhibition of cell growth measured after 24 hrs by MTT assay; type: functional, cell-based; settings: Mus musculus, B16-F10, 24 h
NCI-H1299 = test: Antiproliferative activity against human NCI-H1299 cells assessed as inhibition of cell growth measured after 24 hrs by MTT assay; type: functional, cell-based; settings: NCI-H1299, 24 h
5637 = test: Antiproliferative activity against human 5637 cells assessed as inhibition of cell growth measured after 24 hrs by MTT assay; type: functional, cell-based; settings: Homo sapiens, 5637, 24 h
T-24 = test: Antiproliferative activity against human T24 cells assessed as inhibition of cell growth measured after 24 hrs by MTT assay; type: functional, cell-based; settings: T-24, 24 h
SK-MEL-28 [12] = test: Antiproliferative activity against human SK-MEL-28 cells assessed as inhibition of cell growth measured after 24 hrs by MTT assay; type: functional, cell-based; settings: SK-MEL-28, 24 h
DU-145 = test: Antiproliferative activity against human DU-145 cells assessed as inhibition of cell growth; type: functional, cell-based
CAL-27 [13] = test: Antiproliferative activity against human CAL-27 cells assessed as reduction of cell growth at 100 nM incubated for 24 hrs by MTS assay; type: functional; parameters: scale not given: the % may be the effect or the level left
MCF7 [14] = test: Antiproliferative activity against human MCF7 cells assessed as inhibition of cell growth by MTT assay; type: functional, cell-based
MDA-MB-231 [15] = test: Antiproliferative activity against human MDA-MB-231 cells assessed as inhibition of cell growth by MTT assay; type: functional, cell-based
BT-474 = test: Antiproliferative activity against human BT-474 cells assessed as inhibition of cell growth by MTT assay; type: functional, cell-based

Compound: Oc1cc2c(cc1O)CN(C(=S)NCCc1ccc(Cl)cc1)CC2
IC50 (SCC-9): 2.5 µM
inhibition at 24 h [1]: 20%
Activity (CAL-27 [2]): 211 mm3
IC50 (HSC-3): 2.5 µM
IC50 (CAL-27 [3]): 2.5 µM
IC50 (SCC-4): 2.5 µM
fold change (FC) (CAL-27 [4]): 2.6

Compound: COc1cc(COC(=O)CCCCCC(C)C)ccc1O
IC50 (Jurkat): ~70 µM

Compound: Oc1cc2c(cc1O)C(c1ccccc1)N(C(=S)NCCc1ccc(Cl)cc1)CC2 (stereo not given)
IC50 (SCC-9): 1 µM
Activity (CAL-27 [8]): 95%
IC50 (PC-3): 1 µM
inhibition at 24 h [1]: 20%
Activity (CAL-27 [9]): ~80%
Activity (CAL-27 [10]): 20%
IC50 (NCI-H460): 7.5 µM
Activity (CAL-27 [2]): 333 mm3
IC50 (HSC-3): 1 µM
IC50 (HeLa): ~5 µM
IC50 (CAL-27 [3]): 1 µM
IC50 (SCC-4): 1 µM
fold change (FC) (CAL-27 [4]): 4
IC50 (MDA-MB-231 [11]): 2.5 µM

Compound: C=C(C)[C@]12C[C@@H](C)[C@@]34O[C@](Cc5ccccc5)(O[C@@H]1[C@@H]3C=C(COC(=O)Cc1ccc(O)c(OC)c1)C[C@]1(O)C(=O)C(C)=C[C@@H]41)O2 [RESINIFERATOXIN]
IC50 5637: 19.9 µM
IC50 (T-24): ~21.4 µM

Compound: CCCCCCCCCCC(=O)OCc1ccc2c(c1)OCO2
IC50 (B16-F10): 87 µM
IC50 (SK-MEL-28 [12]): 85 µM

Compound: Oc1cc2c(cc1O)C(c1ccccc1)N(C(=S)NCc1ccccc1)CC2 (stereo not given)
IC50 (SCC-9): 20 µM
inhibition at 24 h [1]: 20%
Activity (CAL-27 [2]): 134 mm3
IC50 (HSC-3): 20 µM
IC50 (CAL-27 [3]): 20 µM
IC50 (SCC-4): 20 µM
fold change (FC) (CAL-27 [4]): 1.6

Compound: COc1cc2ncnc(Nc3ccc(F)c(Cl)c3)c2cc1OCCCN1CCOCC1 [GEFITINIB]
Activity (CAL-27 [13]): 50%

Compound: COc1cc(CNC(=O)CCCC/C=C/C(C)C)ccc1O [CAPSAICIN]
IC50 (B16-F10): 117 µM
IC50 (Jurkat): ~128 µM
IC50 (MCF7 [6]): ~53 µM
IC50 (NCI-H1299): ≥ 200 µM

Second part, led by results:

IC50 (MCF7 [6]): 32 µM
IC50 (SK-MEL-28 [7]): 19.1 µM
Compound: O=S(=O)(NCc1ccc2c(c1)OCO2)c1ccccc1
IC50 [5]: 15.7 µM
IC50 (SBcl2): 17.5 µM

IC50 (B16-F10): 117 µM
IC50 (NCI-H1299): 187 µM
Compound: COc1ccc(CC(=O)OCc2ccc3c(c2)OCO3)cc1

IC50 (DU-145): 54 µM
Compound: Oc1cc2c(cc1O)CN(C(=S)NCCc1ccc(Cl)cc1)CCC2 [CAPSAZEPINE]
Activity (CAL-27 [2]): 269 mm3
fold change (FC) (CAL-27 [4]): 2

IC50 (MCF7 [14]): 3 µM
IC50 (MDA-MB-231 [15]): 40.8 µM
IC50 (BT-474): 10.6 µM
Compound: CCOC(=O)C1=C(c2ccccc2)NC(C)=C(C(=O)SCCOC)C1CC (stereo not given)
